In general, inhibition refers to the change of the read-out against control, counted positive when it falls.

The values that follow come from patent US7064120B2, “Tricyclic pyridyl carboxamides and derivatives thereof tocolytic oxytocin receptor antagonists” (Wyeth, priority 2001, dated 2006).

T1 sequence (P37288 whole entry): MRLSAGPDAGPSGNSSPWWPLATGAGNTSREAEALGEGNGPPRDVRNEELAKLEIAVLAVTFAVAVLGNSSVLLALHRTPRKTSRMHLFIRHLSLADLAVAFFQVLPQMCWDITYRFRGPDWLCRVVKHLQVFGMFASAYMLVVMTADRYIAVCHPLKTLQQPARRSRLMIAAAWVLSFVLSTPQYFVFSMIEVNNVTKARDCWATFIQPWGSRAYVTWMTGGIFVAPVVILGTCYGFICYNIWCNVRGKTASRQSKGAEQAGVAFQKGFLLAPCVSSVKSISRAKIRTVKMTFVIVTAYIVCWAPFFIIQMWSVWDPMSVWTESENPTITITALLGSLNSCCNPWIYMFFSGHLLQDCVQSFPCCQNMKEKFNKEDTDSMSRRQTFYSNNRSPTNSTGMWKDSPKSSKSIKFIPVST

This experiment addresses T1, human vasopressin V1a receptor subtype (Homo sapiens, UniProt P37288).
T1 construct: host or cells: CHO cells, stably transfected (pZeoSV vector for the Thibonnier line)
In words: Vasopressin binding in CHO cell membranes expressing human vasopressin V1a subtype receptors ([3H]Manning ligand radioligand binding). The note with it: 100 nM. The method in brief:
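Membranes from CHO cells expressing human V1a, 25–50 μg protein/well, incubated 60 min at room temperature with [3H]Manning ligand (20 μL of 8 nM stock) in 50 mM Tris-HCl pH 7.4 with BSA, MgCl2 and protease inhibitors. Filtration then scintillation counting; reported as % inhibition or IC50 (nM).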
On to `Cc1ccccc1-c1ccc(C(=O)N2Cc3ccc(C(=O)N(C)CCc4ccncc4)n3Cc3ccccc32)cc1C` [Example 127, 10-[(2,2′-Dimethyl-[1,1′-biphenyl]-4-yl)carbonyl]-N-methyl-N-[2-(4-pyridinyl)ethyl]-10,11-dihydro-5H-pyrrolo[2,1-c][1,4]benzodiazepine-3-carboxamide], for which the inhibition at 0.1 µM came to 66%.

Take `COc1cccc(-c2ccc(C(=O)N3Cc4ccc(C(=O)N(C)CCc5ccncc5)n4Cc4ccccc43)cc2C)c1` [Example 128, 10-[(3′-Methoxy-2-methyl-[1,1′-biphenyl]-4-yl)carbonyl]-N-methyl-N-[2-(4-pyridinyl)ethyl]-10,11-dihydro-5H-pyrrolo[2,1-c][1,4]benzodiazepine-3-carboxamide]: the inhibition at 0.1 µM amounted to 31%.

`COc1ccccc1-c1ccc(C(=O)N2Cc3ccc(C(=O)N(C)CCc4ccncc4)n3Cc3ccccc32)cc1` [Example 129, 10-[(2′-Methoxy-[1,1′-biphenyl]-4-yl)carbonyl]-N-methyl-N-[2-(4-pyridinyl)ethyl]-10,11-dihydro-5H-pyrrolo[2,1-c][1,4]benzodiazepine-3-carboxamide]: the inhibition at 0.1 µM is 54%.

Consider `Cc1ccccc1-c1ccc(C(=O)N2Cc3ccc(C(=O)N(C)CCc4ccncc4)n3Cc3ccccc32)cc1` [Example 130, N-Methyl-10-[(2′-methyl-[1,1′-biphenyl]-4-yl)carbonyl]-N-[2-(4-pyridinyl)ethyl]-10,11-dihydro-5H-pyrrolo[2,1-c][1,4]benzodiazepine-3-carboxamide], for which the inhibition at 0.1 µM was 5%.

In the case of `COc1cc(C(=O)N2Cc3ccc(C(=O)N(C)CCc4ccncc4)n3Cc3ccccc32)ccc1-c1ccccc1C` [Example 131, 10-[(2-Methoxy-2′-methyl-[1,1′-biphenyl]-4-yl)carbonyl]-N-methyl-N-[2-(4-pyridinyl)ethyl]-10,11-dihydro-5H-pyrrolo[2,1-c][1,4]benzodiazepine-3-carboxamide], the inhibition at 0.1 µM was 83%.

Regarding `COc1cc(-c2ccccc2C)c(Cl)cc1C(=O)N1Cc2ccc(C(=O)N(C)CCc3ccncc3)n2Cc2ccccc21` [Example 132, 10-[(6-Chloro-3-methoxy-2′-methyl-[1,1′-biphenyl]-4-yl)carbonyl]-N-methyl-N-[2-(4-pyridinyl)ethyl]-10,11-dihydro-5H-pyrrolo[2,1-c][1,4]benzodiazepine-3-carboxamide], the inhibition at 0.1 µM was determined as 26%.

In the case of `COc1cccc(-c2cc(OC)c(C(=O)N3Cc4ccc(C(=O)N(C)CCc5ccncc5)n4Cc4ccccc43)cc2Cl)c1` [Example 133, 10-[(6-Chloro-3,3′-dimethoxy-[1,1′-biphenyl]-4-yl)carbonyl]-N-methyl-N-[2-(4-pyridinyl)ethyl]-10,11-dihydro-5H-pyrrolo[2,1-c][1,4]benzodiazepine-3-carboxamide], the inhibition at 0.1 µM was 19%.

As for `COc1cc(C(=O)N2Cc3ccc(C(=O)N(C)CCc4ccncc4)n3Cc3ccccc32)ccc1-c1cccc2ccccc12` [Example 134, 10-[3-Methoxy-4-(naphthalen-1-yl)benzoyl]-N-methyl-N-[2-(4-pyridinyl)ethyl]-10,11-dihydro-5H-pyrrolo[2,1-c][1,4]benzodiazepine-3-carboxamide], the inhibition at 0.1 µM came out at 30%.

For the molecule `COc1cccc(-c2ccc(C(=O)N3Cc4ccc(C(=O)N(C)CCc5ccncc5)n4Cc4ccccc43)cc2OC)c1` [Example 135, 10-[(2,3′-Dimethoxy-[1,1′-biphenyl]-4-yl)carbonyl]-N-methyl-N-[2-(4-pyridinyl)ethyl]-10,11-dihydro-5H-pyrrolo[2,1-c][1,4]benzodiazepine-3-carboxamide], the inhibition at 0.1 µM stood at 68%.

For `CN(CCc1ccncc1)C(=O)c1ccc2n1Cc1ccccc1N(C(=O)c1ccc(-c3cccc4ccccc34)cc1Cl)C2` [Example 136, 10-[2-Chloro-4-(naphthalen-1-yl)benzoyl]-N-methyl-N-[2-(4-pyridinyl)ethyl]-10,11-dihydro-5H-pyrrolo[2,1-c][1,4]benzodiazepine-3-carboxamide], the inhibition at 0.1 µM was 7%.

Consider `Cc1cc(C(=O)N2Cc3ccc(C(=O)N(C)CCc4ccncc4)n3Cc3ccccc32)ccc1-c1ccccc1C(F)(F)F` [Example 137, N-Methyl-10-{[2-methyl-2′-trifluoromethyl-[1,1′-biphenyl]-4-yl]carbonyl}-N-[2-(4-pyridinyl)ethyl]-10,11-dihydro-5H-pyrrolo[2,1-c][1,4]benzodiazepine-3-carboxamide], for which the inhibition at 0.1 µM was -1%.

As to `COc1ccccc1-c1ccc(C(=O)N2Cc3ccc(C(=O)N4CCCCC4c4cccnc4)n3Cc3ccccc32)cc1C` (centres unmarked) [Example 138, {10-[(2′-Methoxy-2-methyl-[1,1′-biphenyl]-4-yl)carbonyl]-10,11-dihydro-5H-pyrrolo[2,1-c][1,4]benzodiazepin-3-yl}[2-(3-pyridinyl)-1-piperidinyl]methanone], the inhibition at 0.1 µM is 8%.

`COc1ccccc1-c1ccc(C(=O)N2Cc3ccc(C(=O)N4CCCCC4c4cccnc4)n3Cc3ccccc32)cc1` (centres unmarked) [Example 139, {10-[(2′-Methoxy-[1,1′-biphenyl]-4-yl)carbonyl]-10,11-dihydro-5H-pyrrolo[2,1-c][1,4]benzodiazepin-3-yl}[2-(3-pyridinyl)-1-piperidinyl]methanone]: the inhibition at 0.1 µM was found to be 21%.

With `COc1cc(-c2ccccc2C)c(Cl)cc1C(=O)N1Cc2ccc(C(=O)N3CCCCC3c3cccnc3)n2Cc2ccccc21` (centres unmarked) [Example 140, {10-[(6-Chloro-3-methoxy-2′-methyl-[1,1′-biphenyl]-4-yl)carbonyl]-10,11-dihydro-5H-pyrrolo[2,1-c][1,4]benzodiazepin-3-yl}[2-(3-pyridinyl)-1-piperidinyl]methanone], the inhibition at 0.1 µM was -3%.

Turning to `COc1ccccc1-c1ccc(C(=O)N2Cc3ccc(C(=O)N4CCCCC4c4cccnc4)n3Cc3ccccc32)cc1OC` (centres unmarked) [Example 141, {10-[(2,2′-Dimethoxy-[1,1′-biphenyl]-4-yl)carbonyl]-10,11-dihydro-5H-pyrrolo[2,1-c][1,4]benzodiazepin-3-yl}[2-(3-pyridinyl)-1-piperidinyl]methanone], the inhibition at 0.1 µM amounted to 9%.

In the case of `Cc1cc(C(=O)N2Cc3ccc(C(=O)N4CCCCC4c4cccnc4)n3Cc3ccccc32)ccc1-c1ccccc1C(F)(F)F` (centres unmarked) [Example 142, (10-{[2-Methyl-2′-trifluoromethyl-[1,1′-biphenyl]-4-yl]carbonyl}-10,11-dihydro-5H-pyrrolo[2,1-c][1,4]benzodiazepin-3-yl)[2-(3-pyridinyl)-1-piperidinyl]methanone], the inhibition at 0.1 µM was -5%.

On to `COc1cc(C(=O)N2Cc3ccc(C(=O)N(C)CCc4ccccn4)n3Cc3ccccc32)ccc1-n1c(C)ccc1C` [Example 144, 10-[4-(2,5-Dimethyl-1H-pyrrol-1-yl)-3-methoxybenzoyl]-N-methyl-N-[2-(pyridin-2-yl)ethyl]-10,11-dihydro-5H-pyrrolo[2,1-c][1,4]benzodiazepine-3-carboxamide], for which the inhibition at 0.1 µM stood at 11%.

For `COc1cc(C(=O)N2Cc3ccc(C(=O)N4CCN(c5ccccn5)CC4)n3Cc3ccccc32)ccc1-n1c(C)ccc1C` [Example 145, {10-[4-(2,5-Dimethyl-1H-pyrrol-1-yl)-3-methoxybenzoyl]-10,11-dihydro-5H-pyrrolo[2,1-c][1,4]benzodiazepin-3-yl}[4-(pyridin-2-yl)-1-piperazinyl]methanone], the inhibition at 0.1 µM was -1%.

With `COc1cc(C(=O)N2Cc3ccc(C(=O)N4CCN(c5ccncc5)CC4)n3Cc3ccccc32)ccc1-n1c(C)ccc1C` [Example 146, {10-[4-(2,5-Dimethyl-1H-pyrrol-1-yl)-3-methoxybenzoyl]-10,11-dihydro-5H-pyrrolo[2,1-c][1,4]benzodiazepin-3-yl}[4-(pyridin-4-yl)-1-piperazinyl]methanone], the inhibition at 0.1 µM is 11%.

Turning to `COc1cc(C(=O)N2Cc3ccc(C(=O)N(C)CCc4ccncc4)n3Cc3ccccc32)ccc1-n1c(C)ccc1C` [Example 147, 10-[4-(2,5-Dimethyl-1H-pyrrol-1-yl)-3-methoxybenzoyl]-N-methyl-N-[2-(pyridin-4-yl)ethyl]-10,11-dihydro-5H-pyrrolo[2,1-c][1,4]benzodiazepine-3-carboxamide], the inhibition at 0.1 µM was 15%.
